The source of these data is patent publication US20260232682A1, “GSPT1 DEGRADER COMPOUNDS” (Captor Therapeutics S.A., priority 2023, published 2026).

One data set has as its system KG-1 cells. Nature of the data set: Cell viability CTG assay, KG-1. It is filed as cell-based. The conditions noted are these: Homo sapiens, 72 hours treatment, read-out: KG-1 Geomean absolute IC50. As for the experimental part:
(§1) The effect of selected compounds of the invention on cell viability in various cell lines was investigated using the Cell Viability—CTG Assay Protocol below.
(§2) Hep3B, Hep3B GSPT1 G575N mut., Kelly, KG-1 and NCI-H929 cells were maintained in respective cell medium (see Table 5, below). Cells were seeded in appropriate density (see Table 6, below) onto 384-white plates (Greiner, cat. no. 781080 or 781098) and incubated overnight (Hep3B, Hep3B GSPT1 G575N, Kelly) or treated with compounds immediately after seeding (KG-1, NCI-H929). Tested compounds and DMSO (vehicle control) were dispensed to the plates using Echo 555 Liquid Handler. 12 data-point compound titration curve with concentrations ranging from 50 μM to 1 nM was used. Final DMSO concentration was kept constant at 0.25% v/v across the assay plate. After 72 h incubation (37° C., 5% CO2), cell viability was assessed using CellTiter-Glo® assay kit (Promega, cat. no G7573). Luminescence was measured using CLARIOstar multimode plate reader (BMG LABTECH). The raw data (the relative luminescence unit values, RLU) were uploaded under the relevant protocol and analysed in CDDVault data management platform. Luminescence (RLU) values were normalized to the controls, and reported absolute IC50 values were calculated in CDDVault using non-linear regression and appropriate equations.

The test system of another data set is Kelly cells. Nature of the data set: Cell viability CTG assay, Kelly. The class given is cell-based. The conditions noted are these: 72 hours treatment, read-out: Kelly Geomean absolute IC50. The method, then:
as §1, §2

Another data set concerns NCI-H929 cells. Nature of the data set: Cell viability CTG assay, NCI-H929. The conditions noted are these: Homo sapiens, 72 hours treatment, read-out: NCI-H929 Geomean absolute IC50. It is filed as cell-based. As for the experimental part:
as §1, §2

In another data set the test system is Hep3B cells. Nature of the data set: Cell viability CTG assay, Hep3B. The conditions noted are these: Homo sapiens, 72 hours treatment, read-out: Hep3B Geomean absolute IC50. The class given is cell-based. As for the experimental part: as §1, §2
For data set [1], the system named is Hep3B GSPT1 G575N mut. cells. Nature of the data set: Cell viability CTG assay, Hep3B GSPT1 G575N mut. The class given is cell-based. The following applies: Homo sapiens, 72 hours treatment, read-out: Hep3B GSPT1 G575N Geomean absolute IC50. As for the experimental part:
as §1, §2

Data set [2] in a line: Chemical stability in MV-4-11 medium. The following applies: 37° C.
Method: Next, 500 μL of each solution was transferred to the 96-deep-well plate. Three replicates for each compound were performed. Plate was afterwards incubated at 37° C. with shaking (220 rpm). 50 μL of sample were withdrawn for the each timepoint (0, 1, 3, 6, 24, 48, 72, and 168 hours) and immediately mixed with 50 μL of acetonitrile. Next, samples were centrifuged at 3900 rpm, 10° C. for 20 minutes. 40 μL of supernatant was diluted with 120 μL of acetonitrile containing internal standard (IS) (10 μM), mixed, and analyzed by LC-MS/MS.
Thermo Fisher Scientific Altis+ coupled with a Vanquish system were used for UHPLC-MS/MS analysis. Analytes were separated on a Kinetex XB-C18 2.6 μm, 50×2.1 mm column, using gradient of water with 0.1% (v/v) formic acid (solvent A) and acetonitrile with 0.1% (v/v) formic acid (solvent B): 0.0 min 5% B, 0.5 min 5% B, 1.0 min 70% B, 3.0 min 95% B, 3.5 min 95% B, 3.7 min 5% B, 5 min 5% B. The mobile phase flow rate was set to 0.3 mL/min and the column was kept in 40° C. 1 μL of samples were injected. The MS/MS analysis was performed using SRM mode in positive ionization. Source parameters were set as follow: Ion Source Type H-ESI, Spray Voltage 3800 V, Sheath Gas 50 Arb, Aux Gas 10 Arb, Sweep Gas 1 Arb, Ion Transfer Tube Temp 325° C., Vaporizer Temp 350° C., Collision Gas Pressure 1.5 mTorr, Q1/Q3 Resolution (FWHM) 0.7. Three transitions were monitored for each analyte and for the internal standard:
Quantitation was based on the peak area ratio between the test compound and IS. The amount of compound remaining in the sample was calculated as follow:
The slope of logarithmic curve of percent remaining versus time has been used for calculation of half-life (t_half). First, the elimination constant (k) was calculated using the equation:
Next, half-life (t_half) was calculated using equation:

SMILES strings stand for the structures.

As a reminder, the IC50 is the point on the concentration scale where inhibition reaches its midpoint. As to `Cc1ccc(NC(=O)OCc2ccc3cc(C4CCC(=O)NC4=O)c(C)nc3c2)cc1Cl` (stereo not shown) [Compound 4, (3-(2,6-dioxopiperidin-3-yl)-2-methylquinolin-7-yl)methyl (3-chloro-4-methylphenyl)carbamate], the IC50 is no more than 100 nM with KG-1 cells; no more than 100 nM in the data set with Kelly cells; no more than 100 nM in the data set on NCI-H929 cells; no more than 100 nM with Hep3B cells; greater than 5000 nM in data set [1]. The “% remaining at 24 hrs” value is listed as “a (a≥50%)” in data set [2] (concentration 1 μM) and “b (25%≤b<50%)” in data set [2] (concentration 10 μM). Besides, the “t_half [hours]” value in data set [2] (concentration 1 μM) and in data set [2] (concentration 10 μM) was “A (A≥15 hrs)” throughout.

For `Cc1ccc(NC(=O)OCc2ccc3nc(C)c(C4CCC(=O)NC4=O)cc3c2)cc1Cl` (stereo not shown) [Compound 5, (3-(2,6-dioxopiperidin-3-yl)-2-methylquinolin-6-yl)methyl (3-chloro-4-methylphenyl)carbamate], the IC50 was no more than 100 nM with KG-1 cells; no more than 100 nM in the data set on Kelly cells; no more than 100 nM with NCI-H929 cells; no more than 100 nM in the data set on Hep3B cells; greater than 5000 nM in data set [1].

As to `Cc1ccc(NC(=S)NCc2ccc3cc(C4CCC(=O)NC4=O)c(C)nc3c2)cc1Cl` (stereo not shown) [Compound 2, 1-(3-chloro-4-methylphenyl)-3-((3-(2,6-dioxopiperidin-3-yl)-2-methylquinolin-7-yl)methyl)thiourea], the IC50 was 1000 to 5000 nM in the data set with KG-1 cells; 1000 to 5000 nM in the data set with Kelly cells; greater than 5000 nM in the data set with NCI-H929 cells; greater than 5000 nM in the data set on Hep3B cells; greater than 5000 nM in data set [1].
